Reference: publication PMC3447118 (Bioconjugate chemistry, 2012)

Tests used:
[1] = microPET imaging of U87MG tumor xenografts in mice; type: in vivo, nude mice; conditions: nude, mouse, iv, total radioactivity
[2] = system: U87MG tumor xenografts; test: microPET imaging of U87MG tumor xenografts in mice; type: in vivo, nude mice
[3] = tumor versus muscle (background)

## N=C(N)NCCC[C@@H]1NC(=O)[C@H](CCCCNC(=O)CC[C@H](NC(=O)COCCOCCOCCNC(=O)[C@@H]2CSC(c3nc4ccc(OCCF)cc4s3)=N2)C(=O)NCCCC[C@@H]2NC(=O)[C@@H](Cc3ccc(O)cc3)NC(=O)[C@H](CC(=O)O)NC(=O)CNC(=O)[C@H](CCCNC(=N)N)NC2=O)NC(=O)[C@@H](Cc2ccc(O)cc2)NC(=O)[C@H](CC(=O)O)NC(=O)CNC1=O [[^18F]CBTRGD2]
[1]; kidney, 20 mg/kg
  tissue uptake at 0.5 h: 2.76 ± 0.85 %ID/g
  tissue uptake at 1 h: 1.26 ± 0.23 %ID/g
  tissue uptake at 2 h: 0.81 ± 0.04 %ID/g
[1]; kidney
  tissue uptake at 0.5 h: 5.46 ± 1.1 %ID/g
  tissue uptake at 1 h: 3.99 ± 1.08 %ID/g
  tissue uptake at 2 h: 2.26 ± 0.67 %ID/g
[1]; liver, 20 mg/kg
  tissue uptake at 0.5 h: 1.34 ± 0.06 %ID/g
  tissue uptake at 1 h: 0.7 ± 0.08 %ID/g
  tissue uptake at 2 h: 0.32 ± 0.01 %ID/g
[1]; liver
  tissue uptake at 0.5 h: 3.64 ± 0.76 %ID/g
  tissue uptake at 1 h: 2.84 ± 0.76 %ID/g
  tissue uptake at 2 h: 2.15 ± 0.53 %ID/g
[1]; [3]
  tissue to tissue ratio at 0.5 h: 4.5 ± 0.83
  tissue to tissue ratio at 1 h: 5.4 ± 0.72
  tissue to tissue ratio at 2 h: 6.3 ± 1.1
[1]; tumor, 20 mg/kg
  tissue uptake at 0.5 h: 1.62 ± 0.1 %ID/g
  tissue uptake at 1 h: 1.26 ± 0.13 %ID/g
  tissue uptake at 2 h: 0.49 ± 0.02 %ID/g
[1]; tumor
  tissue uptake at 1 h: 4.25 ± 0.82 %ID/g
  tissue uptake at 2 h: 3.35 ± 0.71 %ID/g
[2]; 30 min, comparison in the same mice (Fig S5, Table S1)
  specific tumor uptake higher than that of [18F]FPPRGD2: 50%
[2]; comparison in the same mice
  uptakes in organs such as liver and kidney compared with [18F]FPPRGD2: higher
